{"source": "paper PMC3229304", "about": "(2011)", "biological_target": "KDM5B/JARID1B/PLU-1 (Homo sapiens, UniProt Q9UGL1)", "sequence (Q9UGL1 whole entry)": "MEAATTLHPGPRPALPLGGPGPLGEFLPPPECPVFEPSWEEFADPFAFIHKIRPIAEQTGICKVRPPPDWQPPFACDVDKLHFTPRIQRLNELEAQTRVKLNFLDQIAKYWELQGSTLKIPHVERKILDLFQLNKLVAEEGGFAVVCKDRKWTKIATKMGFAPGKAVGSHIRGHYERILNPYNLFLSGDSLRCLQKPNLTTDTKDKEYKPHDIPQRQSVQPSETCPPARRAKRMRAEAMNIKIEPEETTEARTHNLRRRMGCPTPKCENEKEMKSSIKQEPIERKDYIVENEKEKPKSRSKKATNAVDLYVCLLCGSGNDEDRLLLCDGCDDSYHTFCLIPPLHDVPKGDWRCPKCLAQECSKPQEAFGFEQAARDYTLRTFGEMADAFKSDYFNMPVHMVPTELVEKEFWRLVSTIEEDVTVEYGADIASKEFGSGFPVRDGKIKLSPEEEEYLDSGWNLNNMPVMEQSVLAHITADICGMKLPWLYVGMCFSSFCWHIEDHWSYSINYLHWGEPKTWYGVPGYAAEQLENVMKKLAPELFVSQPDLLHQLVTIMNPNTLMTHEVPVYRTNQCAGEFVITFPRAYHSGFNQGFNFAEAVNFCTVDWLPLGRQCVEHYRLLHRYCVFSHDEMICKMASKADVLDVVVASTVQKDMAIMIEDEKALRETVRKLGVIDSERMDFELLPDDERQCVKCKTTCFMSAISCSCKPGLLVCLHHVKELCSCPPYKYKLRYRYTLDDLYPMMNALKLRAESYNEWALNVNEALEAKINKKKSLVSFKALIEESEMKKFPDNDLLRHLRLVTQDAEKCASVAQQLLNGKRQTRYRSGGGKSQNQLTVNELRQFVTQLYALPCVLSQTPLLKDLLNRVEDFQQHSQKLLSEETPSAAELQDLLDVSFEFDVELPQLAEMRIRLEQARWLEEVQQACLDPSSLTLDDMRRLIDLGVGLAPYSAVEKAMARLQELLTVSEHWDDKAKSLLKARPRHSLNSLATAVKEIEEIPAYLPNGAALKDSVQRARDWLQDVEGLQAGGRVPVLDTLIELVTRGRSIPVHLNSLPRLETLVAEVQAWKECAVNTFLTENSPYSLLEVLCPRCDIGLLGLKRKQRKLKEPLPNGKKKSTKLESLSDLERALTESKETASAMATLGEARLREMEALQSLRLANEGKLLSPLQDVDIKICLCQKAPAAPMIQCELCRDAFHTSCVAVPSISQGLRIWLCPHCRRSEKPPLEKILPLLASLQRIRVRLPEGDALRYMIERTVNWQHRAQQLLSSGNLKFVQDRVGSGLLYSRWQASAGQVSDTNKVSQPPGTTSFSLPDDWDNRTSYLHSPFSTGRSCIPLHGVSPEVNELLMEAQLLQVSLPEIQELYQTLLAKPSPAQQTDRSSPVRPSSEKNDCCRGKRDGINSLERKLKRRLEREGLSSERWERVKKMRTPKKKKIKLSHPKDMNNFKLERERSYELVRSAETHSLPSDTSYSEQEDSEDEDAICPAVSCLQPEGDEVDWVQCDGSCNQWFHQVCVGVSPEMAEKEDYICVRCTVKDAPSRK", "assay": "in vitro histone demethylase inhibition, Ki", "type": "biochemical"}
{"smiles": "O=C(O)CNC(=O)C(=O)O", "note": "[N-oxalylglycine]", "values": [{"measurement": "Ki", "value": "653 ± 128", "unit": "µM"}]}
